# Data: patent US8399465B2, “Compounds with two fused bicyclic heteroaryl moieties as modulators of leukotriene A4 hydrolase” (Janssen Pharmaceutica NV, priority 2009, dated 2013)
# Counter-ions that a name gives are not always drawn. Like-named read-outs stand apart in the source and are kept apart here.
# Assays:
# [1] = biological target: T1, recombinant human LTA4 hydrolase (rhLTA4H) (Homo sapiens, UniProt P09960); experiment: Recombinant human LTA4 hydrolase assay for LTA4 hydrolase inhibitor activity; format: biochemical
# T1 construct: made in house; host or cells: Spodoptera frugiperda (Sf-9) cells, baculovirus (pFastBac1)
# T1 sequence (P09960 1-611): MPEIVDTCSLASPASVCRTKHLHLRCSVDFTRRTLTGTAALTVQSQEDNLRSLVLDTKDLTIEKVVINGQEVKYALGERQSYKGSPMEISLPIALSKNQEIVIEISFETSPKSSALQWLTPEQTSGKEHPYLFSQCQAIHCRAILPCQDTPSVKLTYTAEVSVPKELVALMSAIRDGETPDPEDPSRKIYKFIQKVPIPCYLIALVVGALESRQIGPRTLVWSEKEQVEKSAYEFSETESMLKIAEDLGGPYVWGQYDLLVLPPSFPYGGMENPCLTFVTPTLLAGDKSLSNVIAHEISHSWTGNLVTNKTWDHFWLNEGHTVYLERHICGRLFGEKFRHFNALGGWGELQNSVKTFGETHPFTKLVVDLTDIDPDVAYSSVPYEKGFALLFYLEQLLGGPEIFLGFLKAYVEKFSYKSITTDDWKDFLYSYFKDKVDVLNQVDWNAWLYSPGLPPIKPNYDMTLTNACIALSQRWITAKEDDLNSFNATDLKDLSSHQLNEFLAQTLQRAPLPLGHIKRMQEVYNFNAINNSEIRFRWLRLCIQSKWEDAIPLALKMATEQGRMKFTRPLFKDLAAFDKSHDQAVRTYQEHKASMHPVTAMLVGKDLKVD
# How it was run: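 Baculovirus/Sf-9-expressed human LTA4H (10 ng) was preincubated 10 min at rt with compound in assay buffer (10% DMSO in compound dilution), then reacted 30 min at rt with LTA4 free acid made from its methyl ester. LTB4 produced was measured by ELISA after dilution; IC50 from non-linear regression, single or averaged determinations.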
# [2] = system: LTB4 production in murine blood (LTA4H); experiment: LTB4 production by calcium ionophore-stimulated murine blood for LTA4H inhibitor activity; format: cell-based, CD-1 mice; conditions: Mus musculus
# How it was run: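 Heparinized blood from CD-1 mice was preincubated with compound for 15 min at 37° C, then stimulated with calcium ionophore A23187 (final 7 μg/mL) for 30 min. Centrifugation stopped the reaction, and LTB4 in the supernatant was measured by enzyme immunoassay. Values are single determinations or means of two or more.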
# [3] = system: arachidonic acid-induced neutrophil influx in murine ear tissue; experiment: Murine arachidonic acid-induced inflammation model: neutrophil influx (myeloperoxidase) in ear; format: in vivo, Balb/c mice; conditions: Mus musculus, read-out: % Inh. MPO
# [4] = system: ex vivo calcium ionophore-stimulated LTB4 production in whole blood; experiment: Murine arachidonic acid-induced inflammation model: ex vivo stimulated LTB4 production in blood; parameters: species or system Balb/c mice; conditions: Mus musculus; 30 mg/kg oral gavage; blood diluted 1:1, A23187 stimulated ex vivo; percent inhibition of LTB4 production; read-out: % Inh. LTB4
# [5] = rhLTA4H, LTB4 by immunoassay, single determination or average of two or more, mark after value = form tested: ′ free base, ″ hydrochloride, ^ formate, read-out: IC50
# [6] = murine blood diluted 1 in 15, A23187 stimulated, single determination or average, mark after value = form tested: ′ free base, ″ hydrochloride, ^ formate, read-out: IC50
# [7] = 30 mg/kg oral gavage, 60 min before topical arachidonic acid, ear biopsy after 3 h, percent inhibition of neutrophil influx
Structure (SMILES),"IC50 [1, 5] [nM]","IC50 [2, 6] [nM]",inhibition at 30 mg/kg ([3]; Neutrophil) [%],inhibition at 30 mg/kg [4] [%],IC50 [1] [nM],"inhibition at 30 mg/kg [3, 7] [%]",IC50 [2] [nM]
"CC(=O)N1CCN(Cc2coc3cc(Oc4nc5ncccc5s4)ccc23)CC1 [Example 196, 1-{4-[6-(Thiazolo[4,5-b]pyridin-2-yloxy)-benzofuran-3-ylmethyl]-piperazin-1-yl}-ethanone formate]",11,38,93,91,–,–,–
"CC(=O)NC1CCN(Cc2coc3cc(Oc4nc5ncccc5s4)ccc23)CC1 [Example 197, N-{1-[6-(Thiazolo[4,5-b]pyridin-2-yloxy)-benzofuran-3-ylmethyl]-piperidin-4-yl}-acetamide formate]",4,15,92,91,–,–,–
"CCN(CC)Cc1cc2ccc(Oc3nc4ncccc4s3)cc2o1 [Example 198, Diethyl-[6-(thiazolo[4,5-b]pyridin-2-yloxy)-benzofuran-2-ylmethyl]-amine formate]",11,110,74,80,–,–,–
"CC(=O)N[C@@H]1C[C@H]2CC[C@@H](C1)N2Cc1coc2cc(Oc3nc4ncccc4s3)ccc12 [Example 208, meso-exo-N-{8-[6-(Thiazolo[4,5-b]pyridin-2-yloxy)-benzofuran-3-ylmethyl]-8-aza-bicyclo[3.2.1]oct-3-yl}-acetamide]",–,24,–,93,1,92,–
"NC(=O)N1C[C@@H]2C[C@H]1CN2Cc1coc2cc(Oc3nc4ncccc4s3)ccc12 [Example 209, (1S,4S)-5-[6-(Thiazolo[4,5-b]pyridin-2-yloxy)-benzofuran-3-ylmethyl]-2,5-diaza-bicyclo[2.2.1]heptane-2-carboxylic acid amide formate]",53,54,82,68,–,–,–
"CC(=O)N1CC2CN(Cc3coc4cc(Oc5nc6ncccc6s5)ccc34)CC2C1 (stereo not drawn) [Example 211, meso-1-{5-[6-(Thiazolo[4,5-b]pyridin-2-yloxy)-benzofuran-3-ylmethyl]-hexahydro-pyrrolo[3,4-c]pyrrol-2-yl}-ethanone]",11,13,–,92,–,86,–
"NC(=O)C1CCN(Cc2coc3cc(Oc4nc5ncccc5s4)ccc23)CC1 [Example 213, 1-[6-(Thiazolo[4,5-b]pyridin-2-yloxy)-benzofuran-3-ylmethyl]-piperidine-4-carboxylic acid amide]",5,25,–,80,–,92,–
"CNC(=O)C1CCN(Cc2coc3cc(Oc4nc5ncccc5s4)ccc23)CC1 [Example 214, 1-[6-(Thiazolo[4,5-b]pyridin-2-yloxy)-benzofuran-3-ylmethyl]-piperidine-4-carboxylic acid methylamide]",2,19,–,90,–,88,–
"O=C1CCCN1C1CCN(Cc2coc3cc(Oc4nc5ncccc5s4)ccc23)CC1 [Example 215, 1-{1-[6-(Thiazolo[4,5-b]pyridin-2-yloxy)-benzofuran-3-ylmethyl]-piperidin-4-yl}-pyrrolidin-2-one]",3,21,–,88,–,78,–
"CC(C)(O)C1CCN(Cc2coc3cc(Oc4nc5ncccc5s4)ccc23)CC1 [Example 218, 2-{1-[6-(Thiazolo[4,5-b]pyridin-2-yloxy)-benzofuran-3-ylmethyl]-piperidin-4-yl}-propan-2-ol]",5,53,–,83,–,98,–
"CC(C)(C)C(=O)NC1CCN(Cc2cc3ccc(Oc4nc5ncccc5s4)cc3o2)C1 (centres unmarked) [Example 236, 2,2-Dimethyl-N-{1-[6-(thiazolo[4,5-b]pyridin-2-yloxy)-benzofuran-2-ylmethyl]-pyrrolidin-3-yl}-propionamide formate]",60,190,34,39,–,–,–
"NC(=O)N1C[C@@H]2CC[C@H]1CN2Cc1coc2cc(Oc3nc4ncccc4s3)ccc12 [Example 241, (1S,4S)-5-[6-(Thiazolo[4,5-b]pyridin-2-yloxy)-benzofuran-3-ylmethyl]-2,5-diaza-bicyclo[2.2.2]octane-2-carboxylic acid amide formate]",4,69,85,77,–,–,–
"O=C(O)C1CCN(Cc2coc3cc(Oc4nc5ccccc5s4)ccc23)CC1 [Example 248, 1-[6-(Benzothiazol-2-yloxy)-benzofuran-3-ylmethyl]-piperidine-4-carboxylic acid formate]",12,–,90,83,–,–,20

# More lines, main results first:
"IC50 [1, 5] [nM]","IC50 [2, 6] [nM]",Structure (SMILES),inhibition at 30 mg/kg ([3]; Neutrophil) [%],inhibition at 30 mg/kg [4] [%],IC50 [1] [nM],"inhibition at 30 mg/kg [3, 7] [%]",IC50 [2] [nM]
2,22,"CC(=O)N1C[C@@H]2CC[C@H]1CN2Cc1coc2cc(Oc3nc4ncccc4s3)ccc12 [Example 237, (1S,4S)1-{5-[6-(Thiazolo[4,5-b]pyridin-2-yloxy)-benzofuran-3-ylmethyl]-2,5-diaza-bicyclo[2.2.2]oct-2-yl}-ethanone]",–,90,–,81,–
5,44,"CC(=O)N1CCC(N(Cc2coc3cc(Oc4nc5ncccc5s4)ccc23)C2CC2)CC1 [Example 238, 1-(4-{Cyclopropyl-[6-(thiazolo[4,5-b]pyridin-2-yloxy)-benzofuran-3-ylmethyl]-amino}-piperidin-1-yl)-ethanone]",–,93,–,77,–
6,18,"NC(=O)N1CCN(Cc2coc3cc(Oc4nc5ncccc5s4)ccc23)CC1 [Example 239, 4-[6-(Thiazolo[4,5-b]pyridin-2-yloxy)-benzofuran-3-ylmethyl]-piperazine-1-carboxylic acid amide]",–,71,–,90,–
5,70,"NC(=O)NC1CCN(Cc2coc3cc(Oc4nc5ncccc5s4)ccc23)CC1 [Example 240, {1-[6-(Thiazolo[4,5-b]pyridin-2-yloxy)-benzofuran-3-ylmethyl]-piperidin-4-yl}-urea]",–,50,–,0,–
5,24,"CS(=O)(=O)NC1CCN(Cc2coc3cc(Oc4nc5ncccc5s4)ccc23)CC1 [Example 244, N-{1-[6-(Thiazolo[4,5-b]pyridin-2-yloxy)-benzofuran-3-ylmethyl]-piperidin-4-yl}-methanesulfonamide]",–,80.7,–,89,–
61,260,"c1cnc2nc(Oc3ccc4c(CCN5CCOCC5)coc4c3)sc2c1 [Example 256, 2-[3-(2-Morpholin-4-yl-ethyl)-benzofuran-6-yloxy]-thiazolo[4,5-b]pyridine]",–,68.4,–,83,–
3,169,"CC(=O)N1CCN(CCc2coc3cc(Oc4nc5ncccc5s4)ccc23)CC1 [Example 257, 1-(4-{2-[6-(Thiazolo[4,5-b]pyridin-2-yloxy)-benzofuran-3-yl]-ethyl}-piperazin-1-yl)-ethanone]",–,68.7,–,87,–
